In PMC8138958 (ACS infectious diseases, 2021):
Converted amounts (≈) assume the structure as drawn. Where two headings read alike, the source gives them in different places. Marks after values point to notes of the source that are not given here. Where a SMILES comes first, the peptide text is derived from it. Bridges are numbered along the chain shown (N, C = ends). [ ]: non-standard residue; d: D form. The star is where a group is joined. X2 = NC[C@@H](CC(=O)*)c1cccc(Cl)c1; Dab = NCC[C@H](N)C(=O)O; Dap = NC[C@H](N)C(=O)O

How the values were obtained:
A. baumannii NCTC13301 = experiment: Neutropenic mouse thigh efficacy model; format: in vivo, Acinetobacter baumannii; settings: same conditions (20mg/kg)
[1] = In vivo nephrotoxicity, kidney histopathology and urinary biomarkers; set-up: species or system male CD-1 mice
A.baumannii IHMA 851735 = experiment: MIC by broth microdilution; format: cell-based, Acinetobacter baumannii; settings: compound alone; reduced susceptibility to polymyxins
P.aeruginosa IHMA644636 = format: cell-based, Pseudomonas aeruginosa; settings: compound alone; reduced susceptibility to polymyxins
K.pneumonia ATCC 13882 = format: cell-based, Klebsiella pneumoniae; settings: compound alone; polymyxin-susceptible strain
E.coli ATCC 25922 = format: cell-based, Escherichia coli; settings: compound alone; polymyxin-susceptible strain
[2] = Plasma exposure in the renal toxicity study; format: in vivo; settings: mouse, 25 mg/kg dose level
P.aeruginosa IHMA517175 = format: cell-based, Pseudomonas aeruginosa; settings: compound alone; reduced susceptibility to polymyxins
K.pneumoniae IHMA520329 = format: cell-based, Klebsiella pneumoniae; settings: compound alone; reduced susceptibility to polymyxins
A.baumannii BAA-747 = format: cell-based, Acinetobacter baumannii; settings: compound alone; polymyxin-susceptible strain
K. pneumoniae IHMA580884 = format: cell-based, Klebsiella pneumoniae; settings: compound alone; reduced susceptibility to polymyxins
A.baumannii NCTC 13301 = format: cell-based, Acinetobacter baumannii; settings: compound alone, polymyxin-susceptible strain
A.baumannii IHMA 517303 = format: cell-based, Acinetobacter baumannii; settings: compound alone; reduced susceptibility to polymyxins
K.pneumoniae IHMA652780 = experiment: MIC by broth microdilution; format: cell-based, Klebsiella pneumoniae; settings: compound alone; reduced susceptibility to polymyxins
P.aeruginosa ATCC 27853 = format: cell-based, Pseudomonas aeruginosa; settings: compound alone; polymyxin-susceptible strain
E.coli IHMA940398 = format: cell-based, Escherichia coli; settings: compound alone; reduced susceptibility to polymyxins
E. coli IHMA558090 = format: cell-based, Escherichia coli; settings: compound alone; reduced susceptibility to polymyxins
[3] = Cynomolgus monkey; cited from earlier work
[4] = mouse; cited from earlier work
[5] = Determination of kidney drug levels; format: in vivo; settings: mouse, single 17.2 mg/kg subcutaneous dose, period 4-16 hr

Molecule	MIC P.aeruginosa IHMA644636 (P.aeruginosa IHMA644636)	MIC K.pneumonia ATCC 13882 (K.pneumonia ATCC 13882)	MIC E.coli ATCC 25922 (E.coli ATCC 25922)	MIC P.aeruginosa IHMA517175 (P.aeruginosa IHMA517175)	MIC K.pneumoniae IHMA520329 (K.pneumoniae IHMA520329)	MIC A.baumannii BAA-747 (A.baumannii BAA-747)	MIC K. pneumoniae IHMA580884 (K. pneumoniae IHMA580884)	MIC A.baumannii NCTC 13301 (A.baumannii NCTC 13301)	MIC A.baumannii IHMA 517303 (A.baumannii IHMA 517303)	MIC P.aeruginosa ATCC 27853 (P.aeruginosa ATCC 27853)	MIC E.coli IHMA940398 (E.coli IHMA940398)	MIC E. coli IHMA558090 (E. coli IHMA558090)	further results
Polymyxin B [1 (PMB)]	32 µg/mL	0.25 µg/mL	0.25 µg/mL	8 µg/mL	64 µg/mL	0.25 µg/mL	8 µg/mL	0.25 µg/mL	>64 µg/mL	0.5 µg/mL	16 µg/mL	4 µg/mL	drop in colony forming units (CFU) from the pre-treatment level (A. baumannii NCTC13301): greater than 2 log10; Histopathology score – number of animals Normal ([1]; 12.5 mg/kg, 24hr, n = 5): 5; Histopathology score – number of animals Minimal ([1]; 12.5 mg/kg, 4 days, n = 5): 1; Histopathology score – number of animals Normal ([1]; 12.5 mg/kg, 4 days, n = 5): 4; Histopathology score – number of animals Mild ([1]; 25 mg/kg, 24hr, n = 5): 2; Histopathology score – number of animals Minimal ([1]; 25 mg/kg, 24hr, n = 5): 2; Histopathology score – number of animals Moderate ([1]; 25 mg/kg, 24hr, n = 5): 1 ^*; Histopathology score – number of animals Minimal ([1]; 25 mg/kg, 4 days, n = 5): 2; kidney histopathology ([1]; mouse, 25 mg/kg sc three times per day, 24 hr and 4 day studies): significant histopathology changes in the kidneys; MIC A.baumannii IHMA 851735 (A.baumannii IHMA 851735): 4 µg/mL; plasma AUCinf [2]: 57000 ng·h/mL; MIC A.baumannii NCTC 13301 (A.baumannii NCTC 13301; listed as PMB): 0.25 µg/mL; MIC K.pneumoniae IHMA652780 (K.pneumoniae IHMA652780): 4 µg/mL
Colistin [2 (Colistin)]	32 µg/mL	0.25 µg/mL	0.25 µg/mL	64 µg/mL	>64 µg/mL	0.25 µg/mL	16 µg/mL	0.5 µg/mL	>64 µg/mL	1 µg/mL	16 µg/mL	4 µg/mL	
CC(C)C[C@@H]1NC(=O)[C@@H](Cc2ccccc2)NC(=O)[C@H](CCN)NC(=O)[C@@H](NC(=O)[C@H](CN)NC(=O)[C@@H](NC(=O)C[C@H](CN)c2cccc(Cl)c2)[C@@H](C)O)CCNC(=O)[C@H]([C@@H](C)O)NC(=O)[C@H](CCN)NC(=O)[C@H](CCN)NC1=O [Compound 26, SPR206] (X2-T[Dap][Dab][Dab][dF]L[Dab][Dab]T; lactam 3-C (inferred))	32 µg/mL (≈ 28 µM)	0.125 µg/mL (≈ 0.109 µM)	0.125 µg/mL (≈ 0.109 µM)	8 µg/mL (≈ 6.99 µM)	64 µg/mL (≈ 55.9 µM)	0.125 µg/mL (≈ 0.109 µM)	16 µg/mL (≈ 14 µM)	0.06 µg/mL (≈ 0.0524 µM)	>64 µg/mL	0.25 µg/mL (≈ 0.218 µM)	32 µg/mL (≈ 28 µM)	8 µg/mL (≈ 6.99 µM)	renal toxicity compared to PMB [3]: significantly reduced renal toxicity compared to PMB; renal toxicity compared to PMB [4]: significantly reduced renal toxicity compared to PMB; AUC in renal tissue [5]: 850 µg·h/g
